The values below come from patent publication US20190153024A1, “NOVEL SALTS AND POLYMORPHS OF SCY-078” (priority 2015, published 2019).

Data set [1] is described as follows: Kinetic solubility of SCY-078 freebase (MeOH desolvate, amorphous freebase). In kind it is physicochemical. The following applies: residual solid by XRPD. The procedure: Kinetic Solubility of SCY-078 Freebase: The kinetic solubility of SCY-078 MeOH desolvate and SCY-078 amorphous freebase was evaluated in SGF media, FaSSIF media, FeSSIF media, dextrose buffer (pH 5.5), phosphate buffer (pH 6.0), and phosphate buffer (pH 7.5) at room temperature. First, solid SCY-078 MeOH desolvate or SCY-078 amorphous freebase (˜15 mg) was weighed into a 4-mL vial. Then the relevant media (3.0 mL) was added and the suspensions were stirred on a rolling incubator (25 rpm) at room temperature for 1 hour, 4 hours, and 24 hours respectively. After stirring, 0.5 mL of suspension was centrifuged and filtered (0.45 μm). The residual solids were analyzed by XRPD, and the supernatant was measured by HPLC and pH meter.

Data set [2] can be described thus: Physical and chemical stability of trifluoroacetate Types A and B and HCl Type I for 1, 2, 4 and 8 weeks. The format is physicochemical. As to the method: High Power Liquid Chromatography (HPLC) Method—An Agilent 1260 HPLC with DAD detector was utilized to test solubility or to test purity and stability. […] System suitability was tested by injecting standard solutions five times in each sample sequence, and the relative standard deviation of the peak areas was less than 2%.
Physical and chemical stability evaluation of trifluoroacetate Type A, trifluoroacetate Type B, and HCl Type I was performed at 25° C./60% RH, 40° C./75% RH and 60° C. for 1, 2, 4 and 8 weeks. In the experiments, approximately 20 mg of solid was placed into a 1.5-mL glass vial. The vials were stored under 25° C./60% RH (uncapped), 40° C./75% RH (uncapped) and 60° C. (capped) conditions for 8 weeks. XRPD analysis was then employed to check the crystalline form of the solid, and HPLC was utilized to determine the purity profile at 1, 2, 4 and 8 weeks. […] The solid form change of trifluoroacetate Type A at 2 and 4 weeks was postulated to the air-exposure when the sample was taken out for XRPD characterization.

Data set [3] is described as follows: Kinetic solubility of trifluoroacetate Types A and B and HCl Type I (alternative procedure: SGF, FaSSIF and FeSSIF alternative media, acetate pH 5.5, phosphate pH 6.0 alternative media). The conditions noted are these: residual solid by XRPD. The procedure:
An alternative media (“FaSSIF alternative media”) was used to study the trifluoroacetate salts (Type A and B) and the HCl Type I salt. More specifically, the media was prepared by weighing 0.17 g of sodium phosphate monobasic (NaH2PO4, anhydrous), 0.021 g of sodium hydroxide, and 0.31 g of sodium chloride into a 50-mL volumetric flask and was dissolve with approximately 48 mL of purified water. The pH was adjusted to exactly 6.5 using 1 M HCl or 1 M NaOH and diluted to volume with purified water. 0.11 g of SIF powder was then added, stirred and sonicated until all the powder was completely dissolved. The solution was equilibrated for 2 hours at RT before use. The solution can be stored at RT for 48 hours or 4° C. for 7 days and should be equilibrated to RT before use
An alternative media (“FeSSIF alternative media”) was used to study the trifluoroacetate salts (Type A and B) and the HCl Type I salt. More specifically, the media was prepared by transferring 0.41 mL of glacial acid and weighing 0.20 g of sodium hydroxide, 0.59 g of sodium chloride into a 50-mL volumetric flask. This was dissolved with approximately 48 mL of purified water. The pH was adjusted to exactly 5.0 using 1 M HCl or 1 M NaOH and diluted to volume with purified water. 0.56 g of SIF powder was added, stirred and sonicated until all the powder is completely dissolved. The solution can be stored at RT for 48 hours or 4° C. for 7 days and should be equilibrated to RT before use.
Acetate Buffer (pH 5.5) Preparation—The acetate buffer (pH 5.5) used for the trifluoroacetate salts (Type A and B) and the HCl Type I salt was prepared by placing 0.60 g sodium acetate (NaC2H3O2.3H2O) in a 100-mL volumetric flask, adding 3 mL of 2 M acetic acid solution, and then adding purified water to volume.
An alternative media (“phosphate (pH 6.0) alternative media”) was used to study the trifluoroacetate salts (Type A and B) and the HCl Type I salt. More specifically, the media was prepared by dissolving 2.72 g of 0.2 M monobasic potassium phosphate (KH2PO4) in purified water, and diluting with purified water t 100 mL. 0.8 g of 0.2 M sodium hydroxide in purified water was diluted with purified water to 100 mL. Then 50 mL of the 0.2 M monobasic potassium phosphate solution was placed in a 200-mL volumetric flask, 5.6 mL of 0.2 M sodium hydroxide solution was added, and then purified water was added to volume.
The trifluoroacetate salts (Type A and B) and the HCl Type I salt were tested using the following alternative procedure. First, 15 mg, 36 mg or 90 mg solid was weighted into a 4-mL plastic tube, and 3 mL of relevant media was added before leaving the suspension on a rolling incubator (25 r/min). For SCF, 90 mg of solid was used. For FaSSIF, acetate buffer (pH 5.5), and phosphate buffer (pH 6.0), 15 mg solid was used. For FeSSIF, 36 mg of solid was used. 1.0 mL aliquot of the suspension was sampled for centrifugation with the supernatant submitted for HPLC and pH measurement and solid for XRPD characterization at 1 hr, 4 hr and/or 24 hrs.
The solubility of trifluoroacetate Type A, Type B and HCl Type I was measured in SGF at ambient temperature. Approximately 90 mg of solid sample was weighted into a 4-mL centrifuge tube, and 3 mL of SGF buffer was added before leaving the suspension on a rolling incubator (25 r/min). 1.0 mL aliquot of the suspension was sampled for centrifugation (10000 rpm, 3 mins) the supernatant was analyzed by HPLC and pH measurement and solid by XRPD characterization at 1 hr, 4 hr and 24 hrs, respectively.
The solubility of trifluoroacetate Type A, Type B and hydrochloride Type I was measured in the FaSSIF alternative media at ambient temperature. Approximately 15 mg of solid sample was weighted into a 4-mL plastic tube, and 3 mL of the media was added before leaving the suspension on a rolling incubator (25 r/min).

Data set [4] is described as follows: Chemical and physical stability of SCY-078 salts on storage (25° C./60% RH, 40° C./75% RH, 60° C.). In kind it is physicochemical. An excerpt:
For all compounds tested other than the trifluoroacetate salts (Type A and B) and the HCl Type I and II salts, the conditions and parameters used for measuring solubility are shown in Table 2A and for measuring stability are showing in Table 3A. The conditions and parameters used for the solubility of the trifluoroacetate salts (Type A and B) and the HCl Type I and II salts are shown in Table 2B and for stability are shown in Table 3B.

[5] abbreviates: 25° C./60% RH (uncapped), 1 week.
The mark [6] stands for this setting: 25° C./60% RH (uncapped), 2 weeks.
[7] abbreviates: 25° C./60% RH (uncapped), 4 weeks.
The mark [8] stands for this setting: 25° C./60% RH (uncapped), 8 weeks.
The mark [9] stands for this setting: 40° C./75% RH (uncapped), 1 week.
Where [10] appears, read: 40° C./75% RH (uncapped), 2 weeks.
Setting [11] is: 40° C./75% RH (uncapped), 4 weeks.
[12] abbreviates: 40° C./75% RH (uncapped), 8 weeks.
Setting [13] is: 25° C./60% RH, open dish, 4 days.

`CC(C)[C@@H](C)[C@@]1(C)CC[C@]2(C)[C@H]3CC[C@@H]4[C@@]5(COC[C@]4(C)[C@@H](OC[C@](C)(N)C(C)(C)C)[C@H](n4ncnc4-c4ccncc4)C5)C3=CC[C@@]2(C)[C@@H]1C(=O)O` [Amorph.]: the Form result is “Amorph” in data set [1] (FaSSIF, 1 hour); “Amorph” in data set [1] (FaSSIF, 4 hours); “Amorph” in data set [1] (FaSSIF, 24 hours); “Amorph” in data set [1] (FeSSIF, 1 hour); “Amorph” in data set [1] (FeSSIF, 4 hours); “Amorph” in data set [1] (FeSSIF, 24 hours). Moreover, the Form result in data set [1] (pH 5.5 buffer, 4 hours) is given as “Amorph”; in data set [1] (pH 5.5 buffer, 24 hours) it was “Amorph”; in data set [1] (pH 6.0 buffer, 4 hours) it was “Amorph”; in data set [1] (pH 6.0 buffer, 24 hours), “Amorph,”; in data set [1] (pH 7.5 buffer, 4 hours), “Amorph”; in data set [1] (pH 7.5 buffer, 24 hours), “Amorph”.
As to `CC(C)[C@@H](C)[C@@]1(C)CC[C@]2(C)[C@H]3CC[C@@H]4[C@@]5(COC[C@]4(C)[C@@H](OC[C@](C)(N)C(C)(C)C)[C@H](n4ncnc4-c4ccncc4)C5)C3=CC[C@@]2(C)[C@@H]1C(=O)O.O=C(O)C(F)(F)F` [TFA Type A], the HPLC purity in data set [2] (setting [5]), in data set [2] (setting [6]), in data set [2] (setting [7]), in data set [2] (setting [8]), in data set [2] (setting [9]) and in data set [2] (setting [10]) was 99.9% each time. In addition, the HPLC purity in data set [2] (setting [11]) amounted to 99.9%; in data set [2] (setting [12]), 99.9%; in data set [2] (60° C. (capped), 1 week), 99.9%; in data set [2] (60° C. (capped), 2 weeks), 99.9%; in data set [2] (60° C. (capped), 4 weeks), 99.9%; in data set [2] (60° C. (capped), 8 weeks) it was 99.9%. Also, the Solid form entry is “Type A” in data set [2] (setting [5]); “Type B” in data set [2] (setting [6]); “Type A + B” in data set [2] (setting [7]); “Type A” in data set [2] (25° C./60% RH (uncapped), 6 weeks); “Type A” in data set [2] (setting [8]); “Type A” in data set [2] (setting [9]). Besides, the Solid form result in data set [2] (setting [10]) was “Type B”; in data set [2] (setting [11]), “Type A + B”; in data set [2] (40° C./75% RH (uncapped), 6 weeks), “Type A”; in data set [2] (setting [12]) it was “Type A”; in data set [2] (60° C. (capped), 1 week), “Type A”; in data set [2] (60° C. (capped), 2 weeks), “Type B”. Besides, the Solid form result in data set [2] (60° C. (capped), 4 weeks) is recorded as “Type A + B”; in data set [2] (60° C. (capped), 6 weeks), “Type A”; in data set [2] (60° C. (capped), 8 weeks), “Type A”. Further, the “Initial HPLC purity” value in data set [2] (Initial) stood at 99.9%. Besides, the Form change result in data set [3] (FaSSIF alternative media, 1 hr) is listed as “No”; in data set [3] (FaSSIF alternative media, 4 hrs), “No”; in data set [3] (FaSSIF alternative media, 24 hrs), “No”; in data set [3] (SGF, 1 hr), “No”; in data set [3] (SGF, 4 hrs) it was “No”; in data set [3] (SGF, 24 hrs) it was “No”. The Form change result is listed as “No” in data set [3] (acetate buffer (pH 5.5), 4 hrs) and “No” in data set [3] (acetate buffer (pH 5.5), 24 hrs).
Turning to `CC(C)[C@@H](C)[C@@]1(C)CC[C@]2(C)[C@H]3CC[C@@H]4[C@@]5(COC[C@]4(C)[C@@H](OC[C@](C)(N)C(C)(C)C)[C@H](n4ncnc4-c4ccncc4)C5)C3=CC[C@@]2(C)[C@@H]1C(=O)O.O=C(O)CC(O)(CC(=O)O)C(=O)O` [Type M], the “Impurity % by HPLC” value in data set [4] (setting [13]) stood at 0.39%; in data set [4] (40° C./75% RH, open dish, 4 days) it was 0.00%; in data set [4] (60° C. closed, 4 days), 0.63%; in data set [4] (Initial) it was 0.42%. The “Solid form” value in data set [4] (setting [13]) is “Type M”; in data set [4] (40° C./75% RH, open dish, 4 days, *One peak change was observed) it was “Type M*”; in data set [4] (60° C. closed, 4 days), “Type M”.
With `CC(C)[C@@H](C)[C@@]1(C)CC[C@]2(C)[C@H]3CC[C@@H]4[C@@]5(COC[C@]4(C)[C@@H](OC[C@](C)(N)C(C)(C)C)[C@H](n4ncnc4-c4ccncc4)C5)C3=CC[C@@]2(C)[C@@H]1C(=O)O.O=C(O)CC(O)(CC(=O)O)C(=O)O` [Type S], the “Impurity % by HPLC” value in data set [4] (25° C./60% RH, open dish, 1 week) is reported as 0.03%; in data set [4] (40° C./75% RH, open dish, 1 week), 0.03%; in data set [4] (60° C., closed dish, 1 week) it was 0.11%; in data set [4] (Initial), 0.10%. Moreover, the “Solid form” value was “Type S**” in data set [4] (25° C./60% RH, open dish, 1 week, **Peak shifts were observed); “Type S**” in data set [4] (40° C./75% RH, open dish, 1 week, **Peak shifts were observed); “Type S” in data set [4] (60° C. closed, 1 week).
